# Article PMC9028392, “Oleyl Conjugated Histidine-Arginine Cell-Penetrating Peptides as Promising Agents for siRNA Delivery” (Pharmaceutics, 2022)
# Legend:
# [1] = Dynamic light scattering, hydrodynamic diameter and PDI of peptide-siRNA complexes; type: physicochemical; details: DLS, 25 °C, peptide-siRNA complex at N/P 40, siRNA 50 nM, HBSS, mean of three independent experiments; for Z-Ave (hydrodynamic diameter): Malvern Nano ZS Zetasizer
# Excerpt: The complex of oleyl conjugated peptides and siRNA was formed through physical mixing. Appropriate volumes of oleyl conjugated peptides and siRNA solution were mixed in Hank’s balanced salt solution (HBSS) buffer to obtain the complexes. The oleyl conjugated peptide-siRNA complexes were formed due to ionic interaction between positively charged arginine residues of the conjugates and the negatively charged phosphate groups of siRNAs. […] The N to P ratio is commonly used where N represents the number of moles of ionizable nitrogen in the delivery agent. In contrast, P refers to the number of moles of phosphates present in siRNA. The ratio is calculated using the following formula. N/P=number of moles pf peptidex number of ionized nitrogen atoms/(number of moles of siRA ×48)
# The peptide-siRNA complexes were characterized using the dynamic light scattering (DLS) technique. Malvern Nano ZS Zetasizer (Westborough, MA, USA) was used to determine the hydrodynamic diameter and surface charge of the complexes at 25 °C. The zeta potential of the complexes was determined at 40 V using disposable folded capillary cells (DTS1070). The calibration of the instrument was performed by transfer standard DTS 1235. The disposable cuvettes were used for determining the hydrodynamic diameter. The N/P ratio 40 was selected for performing the dynamic light scattering experiment. At this N/P ratio, the final concentration of siRNA in the complex was 50 nM whereas the concentration of oleyl-(HR)4 was 24 µM, oleyl-R1-(HR)4 was 19.20 µM, oleyl-R2-(HR)4 was 16 µM, oleyl-R3-(HR)4 was 13.71 µM, oleyl-R4-(HR)4 was 12 µM, and oleyl-R5-(HR)4 was 10.67 µM. The final volume of the complex used for performing zeta potential was 750 µL. The measurements were performed in triplicate, where each measurement consisted of 20 runs. The zeta potential values were calculated using the Smoluchowski model. All the results passed the quality standard of the instrument.
# Particle size was also determined at N/P 40 with the same concentrations of siRNA and oleyl conjugated peptides as described above. The experiments were performed in triplicate on each sample with an automatic attenuator setting. The results were checked with the quality standards of the instruments and were represented as mean ± SD of three independent experiments.
# MDA-MB-231 cells [2] = test: Cellular internalization of Alexa Fluor 488-labeled siRNA by flow cytometry; type: cell-based; details: 24 h; for Increase in cellular uptake of siRNA compared to free siRNA: MDA-MB-231, N/P 40, Alexa-488 siRNA 50 nM, flow cytometry mean fluorescence intensity
# Method: The cellular uptake of siRNA complexed with oleyl conjugated peptides was evaluated using flow cytometry (BD-FACSVerse; BD Biosciences, San Jose, CA, USA) in live cells. Alexa fluor 488-labeled scrambled siRNA was used for making complexes with oleyl conjugated peptides. The peptide-siRNA complexes were made at N/P 40; the final concentration of siRNA in each complex was 50 nM. The study was performed on MDA-MB-231 according to the protocol described by Mandal et al.. Briefly, approximately 500,000 cells were seeded in each well of the six-well plates and were allowed to settle for 24 h. The cells were treated with the conjugate-siRNA complexes (N/P 40) and were incubated in a humidified atmosphere of 5% CO2 and 95% air at 37 °C for 24 h. After 24 h of treatment, the cells were washed three times with HBBS and were trypsinized. The suspended cells were centrifuged for 5 min at 1000 rpm (96× g) at 4 °C, and the cells pellet was washed with HBSS three times to remove any traces of the medium. Finally, the cells were resuspended in PBS and analyzed by flow cytometer using Alexa-Fluor-488 channel to quantify the mean fluorescence intensity. The mean fluorescent intensity in the treated cells was calculated for each sample based on the calibration of the signal gated with nontreated cells, serving as a negative control. Alexa-488 labeled scrambled siRNA served as a second negative control, and lipofectamine-siRNA treated cells were used as a positive control.
# MDA-MB-231 cells [3] = test: Cellular uptake of siRNA by confocal microscopy; type: cell-based; details: MDA-MB-231, fixed cells, N/P 40, siRNA 50 nM, 24 h
# Method: Confocal microscopy was used to corroborate the data obtained from flow cytometry. There have been reports for using fixed cells or live cells for imaging the cellular uptake of siRNA. We adopted the protocol of Aliabadi et al. to perform the confocal microscopy. Briefly, approximately 400,000 MDA-MB-231 cells were seeded on coverslips in 6-well plates and were allowed to settle for 24 h. After 24 h, the cells were visualized under an ordinary microscope for their health and confluency. Peptide-siRNA complexes at N/P ratio 40 were made containing a final concentration of 50 nM of siRNA, and the cells were treated with these complexes. Nontreated cells served as negative control while lipofectamine-siRNA complexes were used as a positive control. After 24 h of treatment, the cells grown on coverslips were washed 3 times with HBSS and fixed with 3.7% formaldehyde solutions solution for 30 min at room temperature. The […] of the cells were stained with Texas Red (TR) Phalloidin (Invitrogen) (1:250 in HBSS), while the nuclei of the cells were stained with 4′,6-diamidino-2-phenylindole (DAPI). Nikon A1R confocal microscope system was used to image the fixed cells at 60X objective and different filters for Alexa-488 (FITC), DAPI, and TR.
# STAT-3 = STAT-3 protein silencing by peptide/STAT-3 siRNA complexes (Western blot); type: cell-based; details: MDA-MB-231, N/P 40, STAT-3 siRNA 50 nM, 48 h; for STAT-3 expression: GAPDH housekeeping
# Method: STAT-3 is an essential protein overexpressed in several cancer types, including breast cancer. The silencing effect of the STAT-3 siRNA delivered via oleyl conjugated peptides was determined by checking the expression of STAT-3 in peptide-siRNA complex treated cells. Expression of STAT-3 in nontreated cells served as a negative control, whereas the commercially used transfection agent lipofectamine (20 µg/mL) complexed with STAT-3 siRNA (50 nM) served as the positive control. STAT-3 expression was evaluated by the Western blotting experiment. Approximately 500,000 MDA-MB-231 cells were seeded in T-25 flasks and incubated at 37 °C under standard growth conditions. After 24 h, the cells were treated with peptide-siRNA complexes at N/P 40 for 48 h. The final siRNA concentration at this N/P was 50 nM. After 48 h of treatment, MDA-MB-231 cell lysates were prepared according to the standard protocol using RIPA buffer; the cell lysates were then incubated on ice for 1 h, during which the tubes were sonicated for 3 min after every 10 min. Following sonication for 1 h to ensure the complete lysis of cells, the tubes were centrifuged for 15 min at 12,000 rpm (RCF = 13,870× g) at 4 °C. The supernatant from the centrifuged tubes was transferred to a fresh set of pre-cooled microtubes, and the total protein concentration was determined using […]. Briefly, 200 μL of working reagent (50:1 A:B) was added to 25 μL of standard and unknown samples in triplicate into a 96-well plate, and the sample was mixed on a plate shaker for 30 s. The plate was then incubated at 37 °C and 5% CO2 for 30 min. After half an hour of incubation, the absorbance was measured at 562 nm using a Spectra MAX M5 microplate reader. The protein in each treatment sample was quantified using the BSA standard curve. A total of 15 µg of the protein was loaded per well in a 10% Mini-PROTEAN® TGX Stain-Free. Protein gel electrophoresis was performed in buffer (0.192 M glycine, 25 mM Tris, 0.1% SDS) for 30 min at 200 V. The gel was then transferred to Mini PVDF membrane (Catalog no. 1704156) using Trans-Blot® Turbo (Bio-Rad, Hercules, CA, USA). The membrane was blocked in BSA 5% for 3 h and then incubated at 4 °C overnight with the primary antibody (1:1000 in TBS-T). The membrane was then washed with TBS-T six times (5 min each time) and was subsequently incubated with the secondary HRP-linked antibody (1:1000 in TBS-T) for 1 h, followed by the washing steps. The detection of the bands was done by ECL Detect Kit using a ChemiDoc imager (Bio-Rad, Hercules, CA, USA). The bands were quantified using Image Lab™ software of ChemiDoc imager.
# [4] = MDA-MB-231, N/P 40, siRNA 50 nM, flow cytometry, n = 3
Substance,PDI (polydispersity index) [1],Z-Ave (hydrodynamic diameter) [1] [nm·days],Mean fluorescent intensity compared with Alexa-488 siRNA treated cells (MDA-MB-231 cells [2]; [4]),Green fluorescence (Alexa-488 siRNA) in confocal images (MDA-MB-231 cells [3]),Reduction (inhibition) in STAT-3 expression (STAT-3),STAT-3 expression (STAT-3),STAT-3 inhibition compared with Lipofectamine 2000 (STAT-3; three independent experiments),Cellular uptake compared with lipofectamine (MDA-MB-231 cells [2]; [4]),Cellular uptake of siRNA within the series (MDA-MB-231 cells [2]; [4]),Increase in cellular uptake of siRNA compared to free siRNA (MDA-MB-231 cells [2])
Oleyl-(HR)4-OH,0.213,120.1,nonsignificant difference in intensity,,,,,,,
"Oleyl-RRRRR-(HR)4-OH [Oleyl-R5-(HR)4, oleyl conjugated peptide with five R residues between oleyl and (HR)4]",0.213,115.6,,comparable green fluorescence,~ 80%,~ 20%,comparable inhibition,nonsignificant difference,maximum cellular uptake,
Oleyl-RR-(HR)4-OH [Oleyl-R2-(HR)4],0.217,115.6,,,~ 68%,~ 68%,,,,
Oleyl-RRRR-(HR)4-OH [Oleyl-R4-(HR)4],0.237,115.2,,comparable green fluorescence,~ 41%,~ 41%,,,,~ 80 fold
Oleyl-RRR-(HR)4-OH [Oleyl-R3-(HR)4],0.229,117,,,~ 55%,~ 55%,,,,~ 80 fold
Oleyl-R-(HR)4-OH [Oleyl-R1-(HR)4],0.201,116.9,nonsignificant difference in intensity,,,,,,,
